For one series, the system named is red blood cells. The experiment in a line: Metabolite formation in the presence of red blood cells (HPLC, mass spectrometry). The class given is in vitro ADME. The conditions noted are these: identified by HPLC and mass spectrometry. The procedure:
(§1) These metabolites were identified by HPLC and mass spectrometry to be m-L-Sarcolysin, prolyl-m-L-sarcolysin, fluoro-phenylalanine and prolyl-m-sarcolysyl-p-fluoro-phenylalanin.
(§2) According to hitherto is available results this metabolite is most probably ADM linked to one Phe moiety. This was done with 1 ml of blood containing 20 μg/ml of the ADM derivative as well as 5×10^9 RBC compared to only 5×10^6 melanoma cells.

For a further series, the system named is human melanoma cells. Briefly: Metabolite formation in the presence of human melanoma cells (HPLC, mass spectrometry). The series is classed as in vitro ADME. To be noted: identified by HPLC and mass spectrometry. The procedure: as §1, §2

Take “Prolyl-m-sarcolysyl-p-fluoro-phenylalanin [PSF]”: the “metabolites in presence of red blood cells” value in the series on red blood cells was “one major metabolite, namely m-L-sarcolysin”. Also, the “metabolites in the presence of cancer cells” value with human melanoma cells came out at 4.

The values are drawn from patent US20070265212A1, “Drug Transport and Delivery System” (LUZERN ACQUISITION CORP., C/O STRELA DEVELOPMENT, priority 2002, published 2007).
